Measured values reported in US20240158446A1, “CYCLIC COMPOUND HAVING SELECTIVE INHIBITORY ACTION ON KRAS OVER HRAS AND NRAS” (CHUGAI SEIYAKU KABUSHIKI KAISHA, priority 2021, published 2024).
Where two headings read alike, the source gives them in different places.

Experiments:
[1] = biological target: GDP-bound NRAS wild-type protein (Homo sapiens, UniProt P01111); experiment: Binding to NRAS by surface plasmon resonance (SPR), Single Cycle Kinetics; settings: SPR; for NRAS/KRAS (ratio of KD value for NRAS to KD value for KRAS): GDP-bound NRAS wild-type protein vs GDP-bound KRAS wild-type protein; for NRAS/KRAS (KD ratio): ratio of KD for GDP-bound NRAS wild-type protein to KD for KRAS
[2] = tested on: human lung cancer strain NCI-H441;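 note: cell proliferation inhibition after four days measured by CellTiter-Glo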
[3] = biological target: GDP-bound HRAS wild-type protein (Homo sapiens, UniProt P01112); experiment: Binding to HRAS by surface plasmon resonance (SPR), Single Cycle Kinetics; settings: SPR; for HRAS/KRAS (ratio of KD value for HRAS to KD value for KRAS): GDP-bound HRAS wild-type protein vs GDP-bound KRAS wild-type protein; for HRAS/KRAS (KD ratio): ratio of KD for GDP-bound HRAS wild-type protein to KD for KRAS
[4] = read-out: NCI-H441 IC50, NCI-H441 cell proliferation, 4 days, CellTiter-Glo

Sequence of GDP-bound NRAS wild-type protein (P01111 whole entry): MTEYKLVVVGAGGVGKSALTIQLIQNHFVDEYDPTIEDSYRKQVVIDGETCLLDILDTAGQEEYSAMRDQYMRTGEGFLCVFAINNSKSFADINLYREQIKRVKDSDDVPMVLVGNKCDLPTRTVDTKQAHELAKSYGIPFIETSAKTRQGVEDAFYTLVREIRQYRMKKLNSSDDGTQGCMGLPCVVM
Sequence of GDP-bound HRAS wild-type protein (P01112 whole entry): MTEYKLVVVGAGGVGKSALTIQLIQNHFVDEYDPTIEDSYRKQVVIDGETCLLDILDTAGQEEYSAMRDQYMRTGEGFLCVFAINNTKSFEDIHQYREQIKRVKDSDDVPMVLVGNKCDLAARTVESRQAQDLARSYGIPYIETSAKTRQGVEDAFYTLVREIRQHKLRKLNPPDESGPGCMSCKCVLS

Row | Structure (SMILES) | NRAS/KRAS (ratio of KD value for NRAS to KD value for KRAS) [1] | IC50 [2] | HRAS/KRAS (ratio of KD value for HRAS to KD value for KRAS) [3] | NRAS/KRAS (ratio of KD value for NRAS to KD value for KRAS) ([1]; KD ratio class) | HRAS/KRAS (ratio of KD value for HRAS to KD value for KRAS) ([3]; KD ratio class) | NRAS/KRAS (KD ratio) [1] | IC50 [2, 4] | HRAS/KRAS (KD ratio) [3]
1 | CCO[C@@H]1C[C@H]2C(=O)NC(C)(C)C(=O)N(C)[C@@H](C3CCCC3)C(=O)N(CC)[C@H](C(=O)N3CCOCC3)CC(=O)N(C)[C@@H](CC(C)C)C(=O)N[C@@H]([C@@H](C)CC)C(=O)N(C)CC(=O)N(C)[C@H]3CCCCCN(C3=O)[C@@H](Cc3ccc(C(F)(F)F)cc3)C(=O)N(C)CC(=O)N[C@@H](CCc3cc(F)c(C(F)(F)F)c(F)c3)C(=O)N2C1 [PP0958] | B (a compound having 3 or more and less than 10 is denoted as B) | 1040 nM | B (a compound having 3 or more and less than 10 is denoted as B) | – | – | – | – | –
2 | CC[C@H](C)[C@@H]1NC(=O)[C@H](CC)N(C)C(=O)C[C@@H](C(=O)N2CCOCC2)N(C)C(=O)[C@H](C2CCCC2)N(C)C(=O)C2(CCCC2)NC(=O)[C@@H]2CCCN2C(=O)[C@H](CCc2ccc(C(F)(F)F)c(Cl)c2)NC(=O)CN(C)C(=O)[C@H](Cc2ccc(F)cc2)N2CCCCC[C@@H](C2=O)N(C)C(=O)CN(C)C1=O [PP0959] | B (a compound having 3 or more and less than 10 is denoted as B) | 156 nM | B (a compound having 3 or more and less than 10 is denoted as B) | – | – | – | – | –
3 | CC[C@H](C)[C@@H]1NC(=O)[C@H](Cc2ccccc2)N(C)C(=O)C[C@@H](C(=O)N2CCOCC2)N(C)C(=O)[C@H](C2CCCC2)N(C)C(=O)C2(CCCC2)NC(=O)[C@@H]2CCCN2C(=O)[C@H](CCc2ccc(C(F)(F)F)c(Cl)c2)NC(=O)CN(C)C(=O)[C@H](Cc2ccc(F)cc2)N2CCCCC[C@@H](C2=O)N(C)C(=O)CN(C)C1=O [PP0961] | B (a compound having 3 or more and less than 10 is denoted as B) | 53.6 nM | B (a compound having 3 or more and less than 10 is denoted as B) | – | – | – | – | –
4 | CC[C@H](C)[C@@H]1NC(=O)[C@H](Cc2cccc(F)c2)N(C)C(=O)C[C@@H](C(=O)N2CCOCC2)N(C)C(=O)[C@H](C2CCCC2)N(C)C(=O)C2(CCCC2)NC(=O)[C@@H]2CCCN2C(=O)[C@H](CCc2ccc(C(F)(F)F)c(Cl)c2)NC(=O)CN(C)C(=O)[C@H](Cc2ccc(F)cc2)N2CCCCC[C@@H](C2=O)N(C)C(=O)CN(C)C1=O [PP0962] | B (a compound having 3 or more and less than 10 is denoted as B) | 83.9 nM | B (a compound having 3 or more and less than 10 is denoted as B) | – | – | – | – | –
5 | CC[C@H](C)[C@@H]1NC(=O)[C@H](Cc2cccc(Cl)c2)N(C)C(=O)C[C@@H](C(=O)N2CCOCC2)N(C)C(=O)[C@H](C2CCCC2)N(C)C(=O)C2(CCCC2)NC(=O)[C@@H]2CCCN2C(=O)[C@H](CCc2ccc(C(F)(F)F)c(Cl)c2)NC(=O)CN(C)C(=O)[C@H](Cc2ccc(F)cc2)N2CCCCC[C@@H](C2=O)N(C)C(=O)CN(C)C1=O [PP0963] | B (a compound having 3 or more and less than 10 is denoted as B) | 100 nM | B (a compound having 3 or more and less than 10 is denoted as B) | – | – | – | – | –
6 | CC[C@H](C)[C@@H]1NC(=O)[C@H](CC(C)C)N(C)C(=O)C[C@@H](C(=O)N2CCOCC2)N(C)C(=O)[C@H](C2CCCC2)N(C)C(=O)C2(CCC2)NC(=O)[C@@H]2[C@@H](OCC3CCCC3)CCN2C(=O)[C@H](CCc2cc(F)c(C(F)(F)F)c(F)c2)NC(=O)CN(C)C(=O)[C@H](Cc2ccc(C(F)(F)F)cc2)N2CCCCC[C@@H](C2=O)N(C)C(=O)CN(C)C1=O [PP1011] | A (a compound having 10 or more and less than 20 is denoted as A) | 314 nM | B (a compound having 3 or more and less than 10 is denoted as B) | – | – | – | – | –
7 | CCO[C@@H]1C[C@H]2C(=O)NC3(CCC3)C(=O)N(C)[C@@H](C3CCCC3)C(=O)N(C)[C@H](C(=O)N(C)C)CC(=O)N(CC)[C@@H](CC(C)C)C(=O)N[C@@H]([C@@H](C)CC)C(=O)N(C)CC(=O)N(C)[C@H]3CC(C)=CCN(C3=O)[C@@H](Cc3ccc(C(F)(F)F)cc3)C(=O)N(C)CC(=O)N[C@@H](CCc3cc(F)c(C(F)(F)F)c(F)c3)C(=O)N2C1 [PP1037] | C (A compound having a KD ratio of 0.1 or more and less than 3 is denoted as C) | 296 nM | C (A compound having a KD ratio of 0.1 or more and less than 3 is denoted as C) | – | – | – | – | –
8 | CCO[C@@H]1C[C@H]2C(=O)NC3(CCC3)C(=O)N(C)[C@@H](C3CCCC3)C(=O)N(C)[C@H](C(=O)N(C)C)CC(=O)N(CC)[C@@H](CC(C)C)C(=O)N[C@@H]([C@@H](C)CC)C(=O)N(C)CC(=O)N(C)[C@H]3CC(C)=C(C)CN(C3=O)[C@@H](Cc3ccc(C(F)(F)F)cc3)C(=O)N(C)CC(=O)N[C@@H](CCc3cc(F)c(C(F)(F)F)c(F)c3)C(=O)N2C1 [PP1051] | C (A compound having a KD ratio of 0.1 or more and less than 3 is denoted as C) | 286 nM | C (A compound having a KD ratio of 0.1 or more and less than 3 is denoted as C) | – | – | – | – | –
9 | CCO[C@@H]1C[C@H]2C(=O)NC3(CCC3)C(=O)N(C)[C@@H](C3CCCC3)C(=O)N(C)[C@H](C(=O)N3CCOCC3)CC(=O)N(C)[C@@H](Cc3ccccc3)C(=O)N[C@@H]([C@@H](C)CC)C(=O)N(C)CC(=O)N(C)[C@H]3CCCCCN(C3=O)[C@@H](Cc3ccc(F)cc3)C(=O)N(C)CC(=O)N[C@@H](CCc3cc(F)c(C(F)(F)F)c(F)c3)C(=O)N2C1 [PP1181] | B (a compound having 3 or more and less than 10 is denoted as B) | 26.3 nM | B (a compound having 3 or more and less than 10 is denoted as B) | – | – | – | – | –
10 | CCO[C@@H]1C[C@H]2C(=O)NC3(CCC3)C(=O)N(C)[C@@H](C3CCCC3)C(=O)N(C)[C@H](C(=O)N3CCCC3)CC(=O)N(C)[C@@H](CC)C(=O)N[C@@H]([C@@H](C)CC)C(=O)N(C)CC(=O)N(C)[C@H]3C/C=C\CCN(C3=O)[C@@H](CC3CCC(F)(F)CC3)C(=O)N(C)CC(=O)N[C@@H](CCc3cc(F)c(C(F)(F)F)c(F)c3)C(=O)N2C1 [PP1442] | – | 48.3 nM | – | A (a compound having 10 or more and less than 20 is denoted as A) | A (a compound having 10 or more and less than 20 is denoted as A) | – | – | –
11 | CCO[C@@H]1C[C@H]2C(=O)NC3(CCC3)C(=O)N(C)[C@@H](C3CCCC3)C(=O)N(C)[C@H](C(=O)N(CC)CC)CC(=O)N(C)[C@@H](CC(C)C)C(=O)N[C@@H]([C@@H](C)CC)C(=O)N(C)CC(=O)N(C)[C@H]3C/C=C\CCN(C3=O)[C@@H](Cc3ccc(C)cc3)C(=O)N(C)CC(=O)N[C@@H](CCc3ccc(C(F)(F)F)c(OC)c3)C(=O)N2C1 [PP1851] | – | – | – | – | – | A (a compound having 10 or more and less than 20 is denoted as A) | 165 nM | A (a compound having 10 or more and less than 20 is denoted as A)
12 | CCO[C@@H]1C[C@H]2C(=O)NC3(CCC3)C(=O)N(C)[C@@H](C3CCCC3)C(=O)N(C)[C@H](C(=O)N(CC)CC)CC(=O)N(C)[C@@H](CC(C)C)C(=O)N[C@@H]([C@@H](C)CC)C(=O)N(C)CC(=O)N(C)[C@H]3C/C=C\CCN(C3=O)[C@@H](Cc3ccc(C)cc3)C(=O)N(C)CC(=O)N[C@@H](CCc3ccc(C(F)(F)F)c(OC)c3)C(=O)N2C1 [PP1887] | – | – | – | – | – | A (a compound having 10 or more and less than 20 is denoted as A) | 19.2 nM | B (a compound having 3 or more and less than 10 is denoted as B)
13 | CCC[C@H]1C(=O)N[C@@H]([C@@H](C)CC)C(=O)N(C)CC(=O)N(C)[C@H]2C/C=C\CCN(C2=O)[C@@H](Cc2ccc(C)cc2)C(=O)N(C)CC(=O)N[C@@H](CCc2cc(F)c(C(F)(F)F)c(F)c2)C(=O)N2C[C@H](OCC)C[C@H]2C(=O)NC2(CC(C)(C)C2)C(=O)N(C)[C@@H](C(CC)CC)C(=O)N(C)[C@H](C(=O)N(C)C)CC(=O)N1C [PP2064] | A (a compound having 10 or more and less than 20 is denoted as A) | 13.6 nM | A (a compound having 10 or more and less than 20 is denoted as A) | – | – | – | – | –
14 | CCO[C@@H]1C[C@H]2C(=O)NC3(CC(C)(C)C3)C(=O)N(C)[C@@H](C3CCCC3)C(=O)N(C)[C@H](C(=O)N(C)C)CC(=O)N(C)[C@@H](CC(C)C)C(=O)N[C@@H]([C@@H](C)CC)C(=O)N(C3CC3)CC(=O)N(C)[C@H]3C/C=C\CCN(C3=O)[C@@H](Cc3ccc(C)cc3)C(=O)N(C)CC(=O)N[C@@H](CCc3cc(F)c(C(F)(F)F)c(F)c3)C(=O)N2C1 [PP2109] | A (a compound having 10 or more and less than 20 is denoted as A) | 5.7 nM | A (a compound having 10 or more and less than 20 is denoted as A) | – | – | – | – | –
